The source of these data is US11578265B2, “AIEgens for cancer cell imaging” (THE HONG KONG UNIVERSITY OF SCIENCE AND TECHNOLOGY, priority 2016, dated 2023).

Data set [1] can be described thus: UV-vis and photoluminescence properties of 2TPE-4E. Format: physicochemical. The protocol:
The photophysical properties of 2TPE-4E were investigated by UV-vis (FIG. 7A) and photoluminescence (PL) spectra. […] The high ε means 2TPE-4E could be excited by a weak laser power, which is beneficial for bio-application due to the weak photo-damage and photobleaching.
Although the film of 2TPE-4E looked bright, its quantum yield (QY) was measured to be around 6%, which can probably be ascribed to the high molar extinction coefficient. […] With the water fraction (fw) increasing, 2TPE-4E began to aggregate and gave a highest intensity at a fw of 90% due to the restriction of intramolecular rotation.

Data set [2] in a line: Photophysical properties of CSPP. Format: physicochemical. The method, then:
Inset: photographs of CSPP in water/iPrOH mixtures with 0% and 99% iPrOH fractions taken under 365 nm UV irradiation; (c) PL spectrum of CSPP in water/glycerol mixtures with different glycerol fractions (fG); and (d) plot of I/I0 at 620 nm versus fG, where I0 was the PL intensity in pure water. Inset: plot of log I against log η, where η was the solution viscosity. Concentration: 10 μM; λex: 400 nm.
The photophysical properties of CSPP were studied. […] However, the emission was enhanced at 640 nm in increments of isopropanol fraction (FIGS. 20a and b), which is a signature of AIE. The free intramolecular motion of a molecularly dissolved state in aqueous solution was in favor of non-radiative decay.
Addition of isopropanol induced the formation of aggregates and restricted the intramolecular motion (RIM), activating the radiative channel. Similarly, intramolecular motion can also be restricted in a highly viscous condition.

In data set [3] the test system is HCC827 cells. In words: CCK-8 cell viability with CSPP. The settings on record: HCC827, CSPP up to 50 μM, 24 hours. Format: cell-based, human. The protocol: (§1) HCC827 and NCI-H23 cells were seeded for 24 hours and incubated in CSPP of different concentration for 24 hours. Data given are the mean±SD (n=4). Before CSPP was further functionalized for antibody labeling, its biocompatibility was verified by CCK-8 assay (FIG. 22).

The next data set deals with NCI-H23 cells. The data set is described as follows: CCK-8 cell viability with CSPP. Format: cell-based. The settings on record: NCI-H23, CSPP up to 50 μM, 24 hours. The method, then: as §1
The test system of data set [4] is HCC827 cells. In words: Cell imaging of CSPP and co-staining with MitoTracker Green. Format: cell-based, human. The settings on record: 5 μM. The protocol: The cell imaging of CSPP molecule was also checked (FIG. 23). […] After 8 hours of incubation, more dyes entered and accumulated in the mitochondria of the cells due to targeting of the pyridium group.
The nature of the next data set: Water solubility of CSPP. Format: physicochemical. The source says:
The design and synthesis of the present subject matter was inspired by the simple design and synthesis of ASCP, which was further modified and the hydrophilicity was improved. To prevent denature of antibodies during conjugation, aqueous solution was used for the reaction. A water-soluble AIEgen having a long wavelength in absorption and emission was required. Piperazine (PZ) was introduced to the structure and served as the electron donating group and hydrophilic group; pyridium (Py) salt was kept as the strong electron withdrawing group and hydrophilic group; and α-Cyanostilbene was the core skeleton for attributing AIE characteristics. As such, a new AIEgen, CSPP, was synthesized by Knoevenagel condensation and Suzuki coupling and the targeted compound was successfully obtained. CSPP carries two positive charges, thus enjoying high water-solubility, and its donor-acceptor structure contributes to a long-wavelength absorption, as well as emission. The synthetic route to CSPP and CSPP—NHS is shown below, with the scheme of synthesis following.

The structures appear in SMILES notation.

Regarding `CCN(CC)c1ccc(C(=C(c2ccccc2)c2ccc(C#CC#CC#CC#Cc3ccc(C(=C(c4ccc(N(CC)CC)cc4)c4ccc(N(CC)CC)cc4)c4ccccc4)cc3)cc2)c2ccc(N(CC)CC)cc2)cc1` [2TPE-4E], in data set [1], the maximum absorption worked out at 473 nm. Further, the “water fraction (fw) giving highest emission intensity” value in data set [1] (THF/water mixtures) is reported as 90%. Moreover, in data set [1] (dilute THF), the “emission in dilute THF solution” value is “very weak emission”. Moreover, the “molar extinction coefficient (ε)” value in data set [1] (dilute THF solution and thin film) is on record as “about 7×10^4 M^−1 cm^−1”. In addition, the “quantum yield (QY)” value in data set [1] (film) is recorded as “around 6%”. Further, in data set [1] (thin film), the solid emission wavelength came out at 630 nm.

For the molecule `C[n+]1ccc(-c2ccc(/C(C#N)=C/c3ccc(N4CC[N+](C)(C)CC4)cc3)cc2)cc1.[I-].[I-]` [CSPP, (Z)-4-(4-(2-cyano-2-(4-(1-methylpyridin-1-ium-4-yl)phenyl)vinyl)phenyl)-1,1-dimethylpiperazin-1-ium iodide], the “λmax, abs” value is reported as 400 nm in data set [2] (Aggregates in 99% isopropanol), 405 nm in data set [2] (In 95% glycerol) and 395 nm in data set [2] (In water). The “λmax, em” value in data set [2] (Aggregates in 99% isopropanol) is reported as 624 nm; in data set [2] (In 95% glycerol), 610 nm; in data set [2] (In water), 640 nm. Besides, the results for the φF in data set [2] (Aggregates in 99% isopropanol), in data set [2] (In 95% glycerol) and in data set [2] (In water) were 5.6%, 13.7% and 0.9%, respectively. The “emission in pure water” value in data set [2] (pure water) is recorded as “very weak emission”. The cell viability result in the data set on HCC827 cells [3] is on record as “above 90%”; in the data set on NCI-H23 cells it was > 81%. The entries for the “emission from stained cells” value in the data set with HCC827 cells [4] (30 minutes) and in the data set with HCC827 cells [4] (8 hours) were “no emission” and “mitochondria lit up”, respectively. Also, the “Pearson correlation coefficient with MitoTracker Green” value with HCC827 cells [4] (8 hours, co-staining) was 0.80. In addition, the water solubility entry in the data set “Water solubility of CSPP” was “water-soluble”.

A word on the cell viability: it is a read-out of living cells in per cent, often relative to untreated cells. Lower therefore signals more harm to the cells.
